Test results taken from US11519911B2, “ALX receptor ligands define a biochemical endotype for inflammation-based diseases” (THE BRIGHAM AND WOMEN'S HOSPITAL, INC., priority 2017, dated 2022).
Entries after “also recorded” stand apart in the source; their conditions may differ.

Experiments:
ALX/FPR2 receptors (ALX) [1] = biological target: T1, ALX/FPR2 receptors (ALX) (Homo sapiens, UniProt P25090); assay: ALX-dependent in vitro reporter assay: IL-8 production by A549 cells expressing human ALX receptor (ELISA); assay type: cell-based; set-up: expressed in transfected cells; host or cells: A549 human lung epithelial cells, stably transfected
T1 sequence (P25090 1-351): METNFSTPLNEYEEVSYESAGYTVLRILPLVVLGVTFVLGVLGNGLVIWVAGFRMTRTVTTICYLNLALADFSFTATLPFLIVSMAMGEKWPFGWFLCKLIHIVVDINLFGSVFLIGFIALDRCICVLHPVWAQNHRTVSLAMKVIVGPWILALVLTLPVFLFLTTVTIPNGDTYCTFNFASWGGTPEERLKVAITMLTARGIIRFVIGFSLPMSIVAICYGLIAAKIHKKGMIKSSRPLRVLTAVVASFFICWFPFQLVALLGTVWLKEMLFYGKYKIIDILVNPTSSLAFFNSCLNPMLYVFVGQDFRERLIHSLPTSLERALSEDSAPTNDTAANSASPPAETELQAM
Protocol: FIG. 6 A-D. SAA and 15-epi-LXA4 signaling via ALX receptors regulates production of the neutrophil chemoattractant IL-8 A549 human epithelial cells expressing human ALX receptors (A549^hALX) were exposed to BALF from HD, NSA, or SA subjects (24 h, 37° C., 5% CO2) and IL-8 levels were measured in the cell-free supernatant by ELISA (see Methods). (A) Mean levels of LXA4, 15-epi-LXA4 and SAA in BALF from n=15 subjects used for A549^hALX cell incubations are shown in stacked bar graphs and the relative proportions are noted in pie charts. (B) IL-8 production by A549^hALX cells was measured after incubation with saline control or SAA (2.5 ng/ml or 10 ng/ml) for 24 hours. (C) IL-8 production by A549^hALX cells was measured after 24 hours of exposure to BALF from HD (n=3), NSA (n=6) or SA (n=5) and is expressed as an increase relative to saline controls. Incubations with BALF without an increase in IL-8 production relative to saline control were assigned a value of zero. (D) A549^hALX epithelial cells were exposed to BALF from subjects with endogenous levels that were LXA4^highSAA^low (n=5) or LXA4^lowSAA^high (n=6) followed by exposure to exogenous 15-epi-LXA4 (100 nM). % Inhibition of IL-8 production after 15-epi-LXA4 exposure was calculated. *p<0.05, ****p<0.001 by (B) one-way ANOVA (C) Kruskal-Wallis test and (D) Mann-Whitney test. ALX, airway lipoxin A4 receptor; LXA4, lipoxin A4; 15-epi-LXA4, 15-epimer lipoxin A4; SAA, serum amyloid A; HD, healthy donors; NSA, non-severe asthma; SA, severe asthma; IL-8, interleukin-8; BALF, bronchoalveolar lavage fluid.
To determine the functional relationship for these ALX receptor ligands, we next turned to an ALX-dependent in vitro reporter assay that we have previously qualified in chronic obstructive pulmonary disease (18). A549 lung epithelial cells were stably transfected to express the human ALX/FPR2 receptor (hALX). […]
A549 transfected to stably express the human ALX receptor were used (as in (18)). […] IL-8 levels in the supernatants were measured by ELISA (R&D). […]

ALX/FPR2 receptors (ALX) [2] = biological target: T1, ALX/FPR2 receptors (ALX); details: high affinity cognate receptors; reference (16); cited from earlier work
[3] = BALF ALX ligand levels after a single dose of intramuscular triamcinolone in asthma subjects; assay type: in vivo, human; details: measured 3 to 6 weeks after, SA or NSA subjects
Protocol: Subjects 13 years of age and older with asthma and healthy control subjects were recruited between November 2012 and February 2015 by seven geographically dispersed, research centers in the USA. European Respiratory Society/American Thoracic Society guidelines were used to categorize subjects as SA or NSA (48). Control subjects were individuals who reported general health and were non-smokers with no history of lung disease, atopic disease or allergic rhinitis. BAL was performed with three 50 mL aliquots of warm saline, and BALF were recovered by hand suction. Subjects received intramuscular triamcinolone (1 mg/kg up to a maximum dose of 40 mg) and some subjects agreed to undergo a second bronchoscopy 3 to 6 weeks later and BAL samples were collected in the same manner. BAL cells were enumerated and differential leukocyte counts determined. Cell-free BALF supernatant was divided into several aliquots. One aliquot of BALF (1 ml) was directly mixed with iced methanol (2 ml, for 1:2, vol/vol) before storing at −80° C. The other aliquots were directly stored at −80° C. […]
LXA4 and 15-epi-LXA4 levels in the BALF were measured by ELISA (Neogen, Lexington, Ky.). […] SAA and ANXA1 levels were measured by ELISA in aliquots of BALF stored in the absence of methanol (SAA: Abazyme, Needham, Mass.; ANXA1: Cloud-Clone, Houston, Tex.). […]

In the case of 15-epimer lipoxin A4 [15-epi-LXA4], the “Inhibition of IL-8 production by A549^hALX cells conditioned with BALF” value (ALX/FPR2 receptors (ALX) [1]; exogenous 15-epi-LXA4 100 nM, cells exposed to BALF) is listed as “inhibited A549^hALX cell IL-8 production”, the “Inhibition of IL-8 production by A549^hALX cells conditioned with BALF from LXA4^lowSAA^high subjects” value (ALX/FPR2 receptors (ALX) [1]; exogenous 15-epi-LXA4 100 nM, compared with LXA4^highSAA^low BALF) is listed as “maximal inhibition of IL-8 production” and the Kd (ALX/FPR2 receptors (ALX) [2]) is listed as roughly 1 nM.

In the case of `CCCCC[C@H](O)/C=C/C=C\C=C\C=C\[C@@H](O)[C@@H](O)CCCC(=O)O` [LXA4, Lipoxin A4], the Kd (ALX/FPR2 receptors (ALX) [2]) is listed as roughly 1 nM.

With `C[C@]12C=CC(=O)C=C1CC[C@H]1[C@@H]3C[C@@H](O)[C@](O)(C(=O)CO)[C@@]3(C)C[C@H](O)[C@@]12F` [triamcinolone] the “Change in BALF levels of LXA4, 15-epi LXA4 and SAA” value [3] was “did not result in discernible changes; also recorded: not significantly altered”.

B1: SAA: acute phase protein, pro-inflammatory ALX peptide ligand; recombinant human SAA (Peprotech) (protein, UniProt P0DJI8 19-122, looked up)
Serum amyloid A-1 protein: RSFFSFLGEAFDGARDMWRAYSDMREANYIGSDKYFHARGNYDAAKRGPGGAWAAEVITDARENIQRFFGHGAEDSLADQAANEWGRSGKDPNHFRPAGLPEKY
In the case of B1, the “IL-8 production by A549^hALX cells” value (ALX/FPR2 receptors (ALX) [1]; recombinant human SAA 0-10 ng/ml, 24 h, vs saline control) is reported as “concentration-dependent (0-10 ng/ml) increase in IL-8 production”.
